# Experimental data reported in patent publication US7879822B2, “Stabilized sulforaphane” (Pharmagra Labs, Inc., priority 2007, dated 2011).
# Legend:
# [1] = Stability analysis of sulforaphane-cyclodextrin formulations by HPLC (Example 1); type: physicochemical; conditions: stored in a freezer
# Description: Analysis Overview: The sulforaphane formulations were analyzed via HPLC (UV detection at 254 nm) using an internal standard (DEET) method. An assumption is made that the sulforaphane completely disassociates from the cyclodextrin under the chromatographic conditions. A sulforaphane standard (stored in a freezer) is used to determine the response factor for each analysis.
# Storage Conditions: The samples were stored under three conditions: Capped and at room temperature, capped and stored in the freezer (−30° C.), and open and stored in a 40° C. oven. These samples were analyzed for sulforaphane load over time. The stabilization of the different samples and different storage conditions may be seen in FIGS. 3-5.
# Sample Preparation Example: A 20 mg to 50 mg (carefully weighed) formulation sample is dissolved in 1 mL of internal standard solution (DEET in DMF). The amount of ISTD solution is also carefully weighed. The sample is further diluted with 1 mL of nitrogen sparged deionized water. The samples are sonicated for approximately ten minutes and filtered through ha 0.45 μm nylon filter. The samples are then analyzed by HPLC UV detection at 254 nm.
# Analysis Results: The results are presented as percent of theoretical load versus time (The calculation for theoretical was described above.)
# [2] = Extended stability study of stabilized sulforaphane compositions by HPLC (Example 2); type: physicochemical; conditions: stored in a freezer
# Description: The sulforaphane formulations were analyzed via HPLC (UV detection at 254 nm) using an internal standard (DEET) method. A sulforaphane standard (stored in a freezer) was used to determine the response factor for each analysis.
# A ca. 300 mg (carefully weighed) formulation sample was dissolved in 8 mL of internal standard solution (DEET in DMF, ca 2 mg/mL). The amount of ISTD solution was also carefully weighed. The sample was further diluted with 8 mL of nitrogen sparged DI water. The samples were sonicated for ˜10 minutes and filtered through a 0.45 μm nylon filter. The samples were then analyzed by HPLC UV detection at 254 nm.
# Chromatographic Conditions: • Column: Agilent Eclipse XDB-C18, 5 μm, 250×4.6 mm, […] @ 30° C. • Solvent A: 0.1% Formic acid in H2O • Solvent B: MeCN • Gradient: 5% to 100% Solvent B in Solvent A over 30 minutes • Flow: 1.5 mL/minute • Detector: UV 254 nm, ESI-MS (pos/neg) for confirmation • Retention Times: Sulforaphane: 9.2 minutes DEET: 15.5 minutes
# Analysis Results: The results are presented as percent of the “time zero” load versus time.
compound,measurement,setting,value
C[S+]([O-])CCCCN=C=S (racemic) [sulforaphane],stability of the standard (HPLC response factor over all analyses),[1],stable
same,stability of the standard (HPLC response factor over all analyses),[2],stable
